The numbers were not newly measured in US20220347150A1, “TASIMELTEON USE IN TREATING SLEEP ABERRATIONS” (Vanda Pharmaceuticals Inc., priority 2019, published 2022), which cites them from elsewhere.

SMILES strings stand for the structures.

For data set [1] the following is noted: subjects with a 5-hour advance in sleep-wake cycle; treatment relative to placebo; reported in US 20090105333A1 (WO2007/137244).
For data set [2] the following is noted: preclinical models of acute phase-shifting and chronic re-entrainment.

In the case of `CCC(=O)NC[C@@H]1C[C@H]1c1cccc2c1CCO2` [tasimelteon, Tasimelteon], in data set [1], the “shifting dim light melatonin onset” value is “positive outcomes” and the sleep efficacy entry is “positive outcomes”. Also, the chronobiotic activity result in data set [2] is reported as “potent chronobiotic activity”.
